Among the data in PubChem BioAssay AID248 (DTP/NCI, 2004) are T/C values, retold here.

In this assay the test system is L1210 leukemia ip in BDF1 mice, survival T/C. In words: NCI In Vivo Anticancer Drug Screen. Data for tumor model L1210 Leukemia (intraperitoneal) in B6D2F1 (BDF1) mice. Particulars: endpoint: mean survival time, higher = longer survival. Put shortly:
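Survival endpoint. Drug-treated group vs vehicle group, expressed as T divided by C. Tumor passaged by transplantation.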

The mark [1] stands for this setting: dose: 50.0 mg/kg/injection, schedule: Q01DX009 (ip), vehicle: Klucel (hydroxypropylcellulose) (HPC).
Where [2] appears, read: dose: 100.0 mg/kg/injection, schedule: Q01DX009 (ip), vehicle: Klucel (hydroxypropylcellulose) (HPC).
The mark [3] stands for this setting: dose: 200.0 mg/kg/injection, schedule: Q01DX009 (ip), vehicle: Klucel (hydroxypropylcellulose) (HPC).
The mark [4] stands for this setting: dose: 100.0 mg/kg/injection, schedule: Q04DX003 (ip), vehicle: saline.
[5] abbreviates: dose: 200.0 mg/kg/injection, schedule: Q04DX003 (ip), vehicle: saline.
The mark [6] stands for this setting: dose: 400.0 mg/kg/injection, schedule: Q04DX003 (ip), vehicle: saline.
[7] abbreviates: dose: 100.0 mg/kg/injection, schedule: Q04DX002 (ip), vehicle: saline with Tween-80.
The mark [8] stands for this setting: dose: 100.0 mg/kg/injection, schedule: Q01DX001 (ip), vehicle: saline.
The mark [9] stands for this setting: dose: 200.0 mg/kg/injection, schedule: Q01DX001 (ip), vehicle: saline.
The mark [10] stands for this setting: dose: 400.0 mg/kg/injection, schedule: Q01DX001 (ip), vehicle: saline.
Where [11] appears, read: dose: 100.0 mg/kg/injection, schedule: Q04DX003 (ip), vehicle: saline with Tween-80.
[12] abbreviates: dose: 200.0 mg/kg/injection, schedule: Q04DX003 (ip), vehicle: saline with Tween-80.
[13] abbreviates: dose: 400.0 mg/kg/injection, schedule: Q04DX003 (ip), vehicle: saline with Tween-80.
Setting [14] is: dose: 100.0 mg/kg/injection, schedule: Q01DX009 (ip), vehicle: saline with Tween-80.
Where [15] appears, read: dose: 400.0 mg/kg/injection, schedule: Q01DX009 (ip), vehicle: saline with Tween-80.

Where “and” joins values, the source holds several entries; their conditions need not be identical. Identical values can stand only once. Toxic doses and inconclusive results are not listed. Square brackets hold non-standard residues; d marks the D form. Peptide text beside a SMILES is read from it. * marks the point of attachment. ξ: configuration not given here. ξF = NC(Cc1ccccc1)C(=O)O; Cbz = O=C(OCc1ccccc1)*

For the compound `O=C(COc1ccc(Cl)cc1)OCCO`, the T/C is 90 % of control (dose: 100.0 mg/kg/injection, schedule: Q01DX001 (ip), vehicle: gum acacia); 96 % of control (dose: 200.0 mg/kg/injection, schedule: Q01DX001 (ip), vehicle: gum acacia); 95 % of control (dose: 400.0 mg/kg/injection, schedule: Q01DX001 (ip), vehicle: gum acacia).

`O=C(CNC(=O)OCc1ccccc1)NC(Cc1ccccc1)C(=O)O` (stereo not drawn) (Cbz-Gly-[ξF]-OH): the T/C was 95 % of control under setting [1]; 93 % of control (dose: 50.0 mg/kg/injection, schedule: Q04DX003 (ip), vehicle: Klucel (hydroxypropylcellulose) (HPC)); 97 % of control under setting [2]; 98 % of control (dose: 100.0 mg/kg/injection, schedule: Q04DX003 (ip), vehicle: Klucel (hydroxypropylcellulose) (HPC)); 93 % of control under setting [3]; 100 % of control (dose: 200.0 mg/kg/injection, schedule: Q04DX003 (ip), vehicle: Klucel (hydroxypropylcellulose) (HPC)).

For the compound `CCOC(=O)Cc1cc(Cl)c2ccc(Cl)cc2n1`, the T/C is 96 % of control (dose: 50.0 mg/kg/injection, schedule: Q01DX009 (ip), vehicle: saline); 95 % of control (dose: 100.0 mg/kg/injection, schedule: Q01DX009 (ip), vehicle: saline); 101 % of control under setting [4]; 90 % of control (dose: 200.0 mg/kg/injection, schedule: Q01DX009 (ip), vehicle: saline); 95 % of control under setting [5]; 92 % of control under setting [6].

For `Cc1cc(C(=O)C(=O)OC(c2ccccc2)c2ccccc2)c(CN2C(=O)c3ccccc3C2=O)c(=O)n1C`, the T/C reads like this: (dose: 25.0 mg/kg/injection, schedule: Q04DX002 (ip), vehicle: saline with Tween-80) 101 % of control; (dose: 50.0 mg/kg/injection, schedule: Q04DX002 (ip), vehicle: saline with Tween-80) 108 % of control; under setting [7], 108 % of control.

In the case of `CC1=CCS(=O)(=O)C1`, the T/C runs as follows: under setting [4], 103 % of control; under setting [5], 101 % of control.

`Cc1cc(C)c([As](=O)(O)O)c([N+](=O)[O-])c1`: the T/C was 90 % of control under setting [8], 101 % of control under setting [9] and 104 % of control under setting [10].

As for `CCCCCCC(=O)OCc1ccc(-c2ccccc2)cc1`, the T/C runs as follows: (dose: 75.0 mg/kg/injection, schedule: Q01DX001 (ip), vehicle: saline) 90 % of control; (dose: 150.0 mg/kg/injection, schedule: Q01DX001 (ip), vehicle: saline) 87 % of control; (dose: 300.0 mg/kg/injection, schedule: Q01DX001 (ip), vehicle: saline) 92 % of control.

Regarding `CCCC(C(=O)OCCN1CCCC12CCCCC2)C1CCCC1` (configuration not stated), the T/C reads like this: (dose: 13.0 mg/kg/injection, schedule: Q01DX Z (ip), vehicle: methylcellulose (MC)) 92 % of control; (dose: 20.0 mg/kg/injection, schedule: Q01DX Z (ip), vehicle: methylcellulose (MC)) 91 % of control; (dose: 30.0 mg/kg/injection, schedule: Q01DX Z (ip), vehicle: methylcellulose (MC)) 88 % of control.

In the case of `N#CCCCc1ccccc1`, the T/C reads like this: under setting [1], 96 % of control; under setting [2], 104 % of control; under setting [3], 112 % of control.

As to `COC1(c2ccccc2)ON=C(c2ccccc2)C=C1c1ccccc1` (configuration not stated), the T/C runs as follows: under setting [4], 93 % of control; under setting [5], 91 % of control; under setting [6], 99 % of control.

Regarding `CC(CC(C)(C)C)OS(=O)(=O)c1ccc(Br)cc1` (configuration not stated), the T/C is 98 % of control under setting [11], 101 % of control under setting [12] and 92 % of control under setting [13].

Turning to `O=C(C[n+]1cccc2ccccc21)c1ccc(-c2ccc(C(=O)C[n+]3cccc4ccccc43)cc2)cc1`, the T/C (dose: 0.13 mg/kg/injection, schedule: Q04DX003 (ip), vehicle: saline) was 103 % of control; the T/C (dose: 0.25 mg/kg/injection, schedule: Q04DX003 (ip), vehicle: saline) is 103 % of control; the T/C (dose: 0.5 mg/kg/injection, schedule: Q04DX003 (ip), vehicle: saline) is 102 % of control.

For `CCOC(=O)C(Br)CCCC(Br)C(=O)OCC` (configuration not stated), the T/C was 90 % of control under setting [14] and 89 % of control under setting [15].

As to `CC(=O)Nc1ccc2c(c1)C(=O)c1cc(F)ccc1-2`, the T/C by setting is: under setting [11], 100 % of control; under setting [12], 96 % of control; under setting [13], 110 % of control.

`CC1(N)COP(=O)(Nc2ccccc2)OC1` (configuration not stated): the T/C was 101 % of control (dose: 44.4 mg/kg/injection, schedule: Q01DX001 (ip), vehicle: carboxymethylcellulose (CMC)); 101 % of control (dose: 66.7 mg/kg/injection, schedule: Q01DX001 (ip), vehicle: carboxymethylcellulose (CMC)); 107 % of control (dose: 150.0 mg/kg/injection, schedule: Q01DX001 (ip), vehicle: carboxymethylcellulose (CMC)); 92 % of control (dose: 200.0 mg/kg/injection, schedule: Q01DX001 (ip), vehicle: carboxymethylcellulose (CMC)); 103 % of control (dose: 400.0 mg/kg/injection, schedule: Q01DX001 (ip), vehicle: carboxymethylcellulose (CMC)).

As to `CSc1ccc(NC(=O)Oc2ccc(C(=O)OCc3ccccc3)cc2)cc1`, the T/C is, setting by setting: (dose: 100.0 mg/kg/injection, schedule: Q01DX001 (ip), vehicle: saline with Tween-80) 100 % of control and 88 % of control; under setting [14], 99 % of control and 87 % of control; under setting [7], 97 % of control and 101 % of control; under setting [11], 102 % of control; (dose: 200.0 mg/kg/injection, schedule: Q01DX001 (ip), vehicle: saline with Tween-80) 97 % of control; (dose: 200.0 mg/kg/injection, schedule: Q01DX009 (ip), vehicle: saline with Tween-80) 108 % of control and 89 % of control. Also, the T/C by setting is: (dose: 200.0 mg/kg/injection, schedule: Q04DX002 (ip), vehicle: saline with Tween-80) 97 % of control and 87 % of control; under setting [12], 103 % of control; (dose: 400.0 mg/kg/injection, schedule: Q01DX001 (ip), vehicle: saline with Tween-80) 100 % of control; under setting [15], 99 % of control and 92 % of control; (dose: 400.0 mg/kg/injection, schedule: Q04DX002 (ip), vehicle: saline with Tween-80) 95 % of control and 97 % of control; under setting [13], 103 % of control.

In the case of `Cc1cc(Cl)ccc1NC(=O)Nc1ccccc1F`, the T/C is 100 % of control under setting [2]; 96 % of control under setting [3]; 94 % of control (dose: 400.0 mg/kg/injection, schedule: Q01DX009 (ip), vehicle: Klucel (hydroxypropylcellulose) (HPC)).

As to `N=c1ccn(C2OC(CO)C(O)C2O)c(=O)n1O` (configuration not stated), the T/C was 123 % of control (dose: 5.0 mg/kg/injection, schedule: Q01DX009 (ip), vehicle: saline); 100 % of control (dose: 10.0 mg/kg/injection, schedule: Q01DX009 (ip), vehicle: saline); 105 % of control under setting [8]; 108 % of control under setting [9]; 103 % of control and 105 % of control under setting [10]; 167 % of control (dose: 400.0 mg/kg/injection, schedule: Q01DX009 (ip), vehicle: saline). Moreover, the T/C is 105 % of control (dose: 600.0 mg/kg/injection, schedule: Q01DX001 (ip), vehicle: saline); 94 % of control (dose: 600.0 mg/kg/injection, schedule: Q01DX009 (ip), vehicle: saline); 110 % of control (dose: 800.0 mg/kg/injection, schedule: Q01DX001 (ip), vehicle: saline); 94 % of control (dose: 800.0 mg/kg/injection, schedule: Q01DX009 (ip), vehicle: saline).

For the compound `COCCOCCOc1ccc(Cl)cc1`, the T/C runs as follows: (dose: 100.0 mg/kg/injection, schedule: Q04DX002 (ip), vehicle: saline) 92 % of control; (dose: 200.0 mg/kg/injection, schedule: Q04DX002 (ip), vehicle: saline) 107 % of control; (dose: 400.0 mg/kg/injection, schedule: Q04DX002 (ip), vehicle: saline) 88 % of control.

Regarding `COCn1c2ccccc2c2nc(-c3ccncc3)nc(-c3ccncc3)c21`, the T/C was 98 % of control (dose: 100.0 mg/kg/injection, schedule: Q04DX002 (ip), vehicle: Klucel (hydroxypropylcellulose) (HPC)); 98 % of control (dose: 200.0 mg/kg/injection, schedule: Q04DX002 (ip), vehicle: Klucel (hydroxypropylcellulose) (HPC)); 95 % of control (dose: 400.0 mg/kg/injection, schedule: Q04DX002 (ip), vehicle: Klucel (hydroxypropylcellulose) (HPC)).
